Assays:
P. vinckei = format: in vivo, A/J mice; settings: for protection against heterologous challenge: 3 doses of 10^6 P. chabaudi pRBC (ring stages) i.v. 2 weeks apart, compound 2 μM, 40 minutes, 37° C., challenge 10^4 P. vinckei (FIG. 7B)
P. chabaudi [1] = format: in vivo, A/J mice; settings: for protection against homologous challenge: 3 doses of 10^6 pRBC (ring stages) i.v. 2 weeks apart, compound 2 μM, 40 minutes, 37° C., challenge 10^5 P. chabaudi (FIG. 7A)
P. chabaudi [2] = settings: 500 μL blood of mice immunized with 10^7 centanamycin (2 μM or 200 nM) attenuated pRBC taken at day 42 post-innoculation, transferred to naïve reporter mice

Compound | protection against heterologous challenge (P. vinckei) | parasitaemia by day 11 post-challenge (P. chabaudi [1]; 3 doses of 10^4, 10^5 or 10^6 pRBC, each group, centanamycin 2 μM (FIG. 4)) | protection against homologous challenge (P. chabaudi [1]) | parasitaemia compared between dose groups, e.g. at day 9 post-challenge (P. chabaudi [1]; 3 doses of 10^6 pRBC versus 10^4 and 10^5, centanamycin 2 μM (FIG. 4)) | vaccination efficacy, 200 nM attenuation (P. chabaudi [1]; 3 doses or a single dose of 10^4 P. chabaudi pRBC treated with 200 nM centanamycin (FIG. 3)) | vaccine efficacy, 3 doses (P. chabaudi [1]; centanamycin attenuated P. chabaudi pRBC, 3 doses of vaccine) | clinical score data (P. chabaudi [1]; immunization with 10^6 centanamycin-treated parasites and challenge (FIG. 6)) | immunity to virulent challenge (parasitemia) (P. chabaudi [1]; pRBC treated in vitro with 2 μM centanamycin, 5 doses i.v. 1 week apart, 10^4 parasites each, challenge 10^5 homologous WT pRBC) | protection, single dose (P. chabaudi [1]; single dose of 10^4 pRBC, centanamycin 2 μM, challenge 10^5 pRBC 35 days after vaccination (FIG. 2)) | parasitaemia at day 8 and 9 post-challenge versus 2 μM attenuated parasites (P. chabaudi [1]; single dose of 10^7 pRBC attenuated using 200 nM centanamycin (FIG. 5)) | recovery by day 13 post-innoculation (P. chabaudi [1]; single dose of 10^7 pRBC attenuated using 200 nM centanamycin, compared with 2 μM (FIG. 5)) | parasites detected by microscopy (P. chabaudi [2]) | peak parasite density (P. vinckei; 1 mouse of the group, P. vinckei challenge) | recovery by day 12 (P. vinckei; P. vinckei challenge, all animals)
COc1cc2cc(C(=O)Nc3cc(O)c4ncc(C)cc4c3CCCl)[nH]c2c(OC)c1OC [AS-VIII-104] | performed similarly to centanamycin | – | – | – | – | – | – | – | – | – | – | – | – | –
COc1cc2cc(C(=O)Nc3cc(N)c4ccccc4c3CCCl)[nH]c2c(OC)c1OC [centanamycin] | – | little or no parasitaemia | lower | lowest | effectively vaccinated | work effectively | protected not only from death and high parasitemia but also from symptoms | induces immunity to virulent challenge | induces protection in most animals | more significant parasitaemia | recovered to the same extent | no parasites detected | – | –
COc1cc2cc(C(=O)N3CC(CCl)c4c3cc(O)c3ccoc43)[nH]c2c(OC)c1OC (stereo not shown) [tafuramycin A, seco-iso-cyclopropylfurano[2,3-e]indoline-TMI] | very significant protection | – | near complete protection | – | – | – | – | – | – | – | – | – | approximately 20% | all the animals had fully recovered

Reference: patent publication US9539316B2, “Blood stage malaria vaccine” (priority 2011, dated 2017)
